Experimental data taken from patent publication US9925232B2, “Methods and compositions comprising desmopressin in combination with a 5-alpha reductase inhibitor” (Serenity Pharmaceuticals LLC, priority 2013, dated 2018).

What was measured:
[1] = human, in vivo; cited from earlier work
[2] = system: patients experiencing on average at least two nocturnal voids per night; experiment: Clinical study: reduction in the average number of nocturnal voids (Responder / Non-Responder); type: in vivo, human
Description: A clinical study was performed to evaluate the impact of administering desmopressin in combination with a 5-alpha reductase inhibitor alone or together with an alpha-adrenergic receptor antagonist to reduce the occurrence of nocturnal voiding by a patient. Experimental procedures and results are described below. […] Patients received as a nasal spray either (i) a 1.5 μg dosage of desmopressin or (ii) placebo. The desmopressin nasal spray (or placebo) was administered daily just prior to bedtime for a duration of twelve weeks. In addition, patients previously diagnosed as suffering from benign prostatic hyperplasia (BPH) and receiving a 5-alpha reductase inhibitor alone or together with an alpha-adrenergic receptor antagonist for treatment of BPH continued to receive the 5-alpha reductase inhibitor alone or together with the alpha-adrenergic receptor antagonist at the same dosage and frequency used prior to enrollment in this study. All patients in this study who received a 5-alpha reductase inhibitor alone or together with an alpha-adrenergic receptor antagonist for treatment of their BPH had been receiving the 5-alpha reductase inhibitor alone or together with the alpha-adrenergic receptor antagonist for at least 2 months before enrollment in this study and experienced on average at least two nocturnal voids per night before enrollment in this study. The desmopressin nasal spray was prepared by combining aliquots of an Emulsion Stock Solution and a Buffer Solution as described below. To produce the desmopressin nasal spray, aliquots of the 30 μg/mL solution were filtered to eliminate any bacterial contamination and diluted with an equal volume of emulsion stock solution to produce aseptic, preservative free dose forms comprising 15 μg/mL desmopressin, pH 5.5, containing 2% cyclopentadecanolide. These were bottled in sterile pump spray bottles fitted with a Pfeiffer APF pump sprayers that deliver 100 μL per metered spray (i.e., 1.5 μg desmopressin (i.e., 1500 ng desmopressin) per spray). The liquid contains no detectable microorganisms. Patients recorded the occurrence of nocturnal voids during the study period. Patients were designated to be a “Responder” if after receiving treatment there was a reduction in the average number of nocturnal voids during the treatment period.

[3] = BPH patients receiving 5-alpha reductase inhibitor alone or together with alpha-adrenergic receptor antagonist, 1.5 μg nasal spray daily, twelve weeks, n = 14
[4] = BPH patients, second component none (no 5-alpha reductase inhibitor or alpha-adrenergic receptor antagonist), 1.5 μg nasal spray daily, twelve weeks, n = 42
[5] = BPH patients, alpha-adrenergic receptor antagonist and 5-alpha reductase inhibitor, 1.5 μg desmopressin nasal spray daily, twelve weeks, n = 14
[6] = BPH patients, second component 5-alpha reductase inhibitor, 1.5 μg desmopressin nasal spray daily prior to bedtime, twelve weeks, n = 14
[7] = male patients without BPH, second component none, 1.5 μg nasal spray daily, twelve weeks, n = 34

Structure (SMILES): NC(=O)CC[C@@H]1NC(=O)[C@H](Cc2ccccc2)NC(=O)[C@H](Cc2ccc(O)cc2)NC(=O)CCSSC[C@@H](C(=O)N2CCC[C@H]2C(=O)N[C@H](CCCN=C(N)N)C(=O)NCC(N)=O)NC(=O)[C@H](CC(N)=O)NC1=O [Desmopressin, 1-desamino-8-D-arginine vasopressin]
- half-life (known clearance rate) [1]: 1.5 to 2.0 h
- Difference in Responder Response Rate Between Desmopressin-treated Patients & Those Receiving Placebo ([2]; BPH patients receiving 5-alpha reductase inhibitor alone or together with alpha-adrenergic receptor antagonist): 40%
- Non-Responder Patients: Total Number of Patients that Received Desmopressin [2, 3]: 6
- Percent Total Non-Responder Patients that Received Desmopressin [2, 3]: 43% (6/14)
- Percent Total Responder Patients that Received Desmopressin (absolute response rate) [2, 3]: 57%
- Responder Patients: Total Number of Patients that Received Desmopressin [2, 3]: 8
- Difference in Responder Response Rate Between Desmopressin-treated Patients & Those Receiving Placebo ([2]; BPH patients receiving 5-alpha reductase inhibitor alone or together with alpha-adrenergic receptor antagonist, listed as desmopressin): 40%
- Difference in Responder Response Rate Between Desmopressin-treated Patients & Those Receiving Placebo ([2]; BPH patients that did not receive a 5-alpha reductase inhibitor or an alpha-adrenergic receptor antagonist): 14%
- Difference in Responder Response Rate Between Desmopressin-treated Patients & Those Receiving Placebo ([2]; BPH patients that did not receive a 5-alpha reductase inhibitor or an alpha-adrenergic receptor antagonist, listed as desmopressin): 14%
- Non-Responder Patients: Number of Patients that Received Desmopressin [2, 4]: 24
- Percent Total Non-Responder Patients that Received Desmopressin [2, 4]: 57%
- Percent Total Responder Patients that Received Desmopressin (absolute response rate) [2, 4]: 43%
- Responder Patients: Number of Patients that Received Desmopressin [2, 4]: 18
- Percent Total Responder Patients that Received Desmopressin (absolute response rate) ([2]; BPH patients, second component none (no 5-alpha reductase inhibitor or alpha-adrenergic receptor antagonist), 1.5 μg nasal spray daily, twelve weeks, n = 42, listed as desmopressin): 43%
- Non-Responder Patients: Number of Patients that Received Desmopressin [2, 5]: 2
- Responder Patients: Number of Patients that Received Desmopressin [2, 5]: 5
- Non-Responder Patients: Number of Patients that Received Desmopressin [2, 6]: 4
- Responder Patients: Number of Patients that Received Desmopressin [2, 6]: 3
- Difference in Responder Response Rate Between Desmopressin-treated Patients & Those Receiving Placebo ([2]; male patients not diagnosed with BPH, not receiving a 5-alpha reductase inhibitor or an alpha-adrenergic receptor antagonist): 18%
- Difference in Responder Response Rate Between Desmopressin-treated Patients & Those Receiving Placebo ([2]; male patients not diagnosed with BPH, not receiving a 5-alpha reductase inhibitor or an alpha-adrenergic receptor antagonist, listed as desmopressin): 18%
- Non-Responder Patients: Number of Patients that Received Desmopressin [2, 7]: 16
- Percent Total Non-Responder Patients that Received Desmopressin [2, 7]: 47%
- Percent Total Responder Patients that Received Desmopressin (absolute response rate) [2, 7]: 53%
- Responder Patients: Number of Patients that Received Desmopressin [2, 7]: 18
- Percent Total Responder Patients that Received Desmopressin (absolute response rate) ([2]; male patients without BPH, second component none, 1.5 μg nasal spray daily, twelve weeks, n = 34, listed as desmopressin): 53%
